According to patent US20260174875A1 (Novo Nordisk A/S, priority 2023, published 2026):
Like-named read-outs stand apart in the source and are kept apart here. Numbered stars: 1 amine (or outer) side, 2 acyl side, 3 side chain; on linkers, the order of the positions; unused ones are H or OH. Square brackets hold non-standard residues; d marks the D form. Side chains are listed from the residue outwards. * marks the point of attachment. Chem. 22 = C20 diacid gamma-Glu, O=C(O)CCCCCCCCCCCCCCCCCCC(=O)N[C@@H](CCC(=O)*)C(=O)O; C20 diacid = O=C(O)CCCCCCCCCCCCCCCCCCC(=O)*; C18 diacid = O=C(O)CCCCCCCCCCCCCCCCC(=O)*; γGlu = O=C(O)[C@H](CCC(=O)[*:2])N[*:1]; Chem. 28 = not defined here; AEEA = NCCOCCOCC(=O)O; Aib = CC(C)(N)C(=O)O

T1: human GIP receptor (hGIPR) (Homo sapiens, UniProt P48546)
T1 construct: expressed in transfected cells
T1 sequence (P48546 22-466): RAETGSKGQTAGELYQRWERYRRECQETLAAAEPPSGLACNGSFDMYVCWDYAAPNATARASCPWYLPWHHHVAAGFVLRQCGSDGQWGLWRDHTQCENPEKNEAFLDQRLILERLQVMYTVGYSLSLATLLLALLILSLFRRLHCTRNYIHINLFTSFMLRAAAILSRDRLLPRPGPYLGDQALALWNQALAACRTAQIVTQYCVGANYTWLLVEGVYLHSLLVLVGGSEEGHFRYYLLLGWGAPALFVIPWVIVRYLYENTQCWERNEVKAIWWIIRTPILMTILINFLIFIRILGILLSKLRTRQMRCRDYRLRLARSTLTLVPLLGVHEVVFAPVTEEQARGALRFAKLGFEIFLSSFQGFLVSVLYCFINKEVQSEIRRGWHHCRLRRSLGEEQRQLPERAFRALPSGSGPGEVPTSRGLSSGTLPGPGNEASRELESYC

T2: human GIP receptor (human, UniProt P48546 22-466)
T2 sequence (looked up): T1 sequence (P48546 22-466)

T3: human amylin-3(a) receptor (human, UniProt P30988 25-474; O60896 24-148)
T3 sequence (looked up) 1: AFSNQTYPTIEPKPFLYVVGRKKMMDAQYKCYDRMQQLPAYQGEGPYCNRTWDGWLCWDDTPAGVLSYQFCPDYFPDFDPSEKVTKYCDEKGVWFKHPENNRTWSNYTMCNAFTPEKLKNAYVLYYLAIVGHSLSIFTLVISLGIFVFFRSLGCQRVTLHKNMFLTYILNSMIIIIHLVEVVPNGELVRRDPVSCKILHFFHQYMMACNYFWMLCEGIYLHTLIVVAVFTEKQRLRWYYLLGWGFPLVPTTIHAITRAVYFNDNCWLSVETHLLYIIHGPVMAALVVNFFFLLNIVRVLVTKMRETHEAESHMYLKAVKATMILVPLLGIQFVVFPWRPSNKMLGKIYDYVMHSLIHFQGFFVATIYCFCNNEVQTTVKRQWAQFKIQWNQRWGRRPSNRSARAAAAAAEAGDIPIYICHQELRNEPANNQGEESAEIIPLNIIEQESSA
T3 sequence (looked up) 2: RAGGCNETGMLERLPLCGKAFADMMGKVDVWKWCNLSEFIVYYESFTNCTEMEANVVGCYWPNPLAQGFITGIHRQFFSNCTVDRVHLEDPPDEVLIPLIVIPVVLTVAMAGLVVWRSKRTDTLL

B1: Compound 41 (peptide)
peptide: Y[Aib]EGTFTSDYSILLEEQAAREFIEWLLAGGPSK(Chem. 22)GAPPPSGGGEASELSTAALGRLSAELHRLADLPRTETGSGSP-NH2
B2: Compound 34 (peptide)
peptide: Y[Aib]EGTFTSDYSILLEEQAAREFIEWLLAGGPSK(Chem. 28)GEASHLSTAQTQRLSAELHELATLPRTETGSGSP-NH2
modifications: reading uncertain
B3: Compound 40 (peptide)
peptide: Y[Aib]EGTFTSDYSILLEEQAAREFIEWLLAGGPSK(Chem. 28)GGGGEGGGEGEASHLSTAQTQRLSAELHELATLPRTETGSGSP-NH2
modifications: reading uncertain; also: VARIANT 50 Aib (position 50 is T), mods: Aib at 2
B4: Compound 35 (peptide)
peptide: Y[Aib]EGTFTSDYSILLEEQAAREFIEWLLAGGPSK(Chem. 28)GEASHLSTAQTARLSAELHELATLPRTETGSGSP-NH2
modifications: reading uncertain
B5: Compound 33 (peptide)
peptide: Y[Aib]EGTFTSDYSILLEEQAAREFIEWLLAGGPSK(Chem. 28)GAPPEASELSTAALGRLSAELHELATLPRTETGSGSP-NH2
modifications: reading uncertain
B6: Compound 42 (peptide)
peptide: Y[Aib]EGTFTSDYSILLEEQAAREFIEWLLAGGPSSK(Chem. 22)APPPSGGGEASELSTAALGRLSAELHRLATLPRTETGSGSP-NH2

Assays:
[1] = target: T4, human GLP-1 receptor (hGLP-1R) (Homo sapiens, UniProt P43220); assay: GLP-1 receptor assay, method A (CRE-luciferase reporter, BHK cells); format: cell-based
T4 construct: expressed in transfected cells
How it was run: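 hGLP-1R BHK CRE-Luc cells, thawed, in DMEM (no phenol red)/10 mM HEPES/1% ovalbumin/0.1% Pluronic F-68 ± 1% (w/v) HSA; 3 h, 37° C, 5% CO2; steadylite Plus, 30 min RT, luminescence.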

[2] = target: T1, human GIP receptor (hGIPR); assay: GIP receptor assay, method A (CRE-luciferase reporter, BHK cells); format: cell-based
How it was run: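 Receptor activation was read as luciferase luminescence in hGIPR-expressing BHK CRE-Luc cells after 3 h compound exposure at 37 °C. Titrations (10-fold, 7 points, duplicate) ran in buffer containing 1% ovalbumin, with 1% HSA final or without; EC50 in pM fitted by four-parameter logistic model, Hill slope shared.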

[3] = target: T5, human amylin receptor (hAMYR3) (Homo sapiens, UniProt O60896+P30988); assay: Amylin receptor assay, method A (CRE-luciferase reporter, BHK cells); format: cell-based
T5 construct: host or cells: BHK cells (Hollex-1 line expressing hCTR(a) and CRE-Luc), further transfected with human RAMP3

[4] = target: human GLP-1 receptor (human, UniProt P43220 24-463); assay: cell-based or functional assay
[5] = target: T2, human GIP receptor; assay: cell-based or functional assay
[6] = target: T3, human amylin-3(a) receptor; assay: cell-based or functional assay
[7] = hGLP-1R Potency, 1% HSA, EC50, method A, in the presence of 1% HSA
[8] = method A, absence of HSA, read-out: hGLP-1R Potency, no HSA, EC50
[9] = hGIPR Potency, 1% HSA, EC50, method A, in the presence of 1% HSA
[10] = method A, absence of HSA, read-out: hGIPR Potency, no HSA, EC50
[11] = hAMYR3 Potency, 1% HSA, EC50, method A, in the presence of 1% HSA
[12] = method A, absence of HSA, read-out: hAMYR3 Potency, no HSA, EC50

T4 sequence (P43220 24-463): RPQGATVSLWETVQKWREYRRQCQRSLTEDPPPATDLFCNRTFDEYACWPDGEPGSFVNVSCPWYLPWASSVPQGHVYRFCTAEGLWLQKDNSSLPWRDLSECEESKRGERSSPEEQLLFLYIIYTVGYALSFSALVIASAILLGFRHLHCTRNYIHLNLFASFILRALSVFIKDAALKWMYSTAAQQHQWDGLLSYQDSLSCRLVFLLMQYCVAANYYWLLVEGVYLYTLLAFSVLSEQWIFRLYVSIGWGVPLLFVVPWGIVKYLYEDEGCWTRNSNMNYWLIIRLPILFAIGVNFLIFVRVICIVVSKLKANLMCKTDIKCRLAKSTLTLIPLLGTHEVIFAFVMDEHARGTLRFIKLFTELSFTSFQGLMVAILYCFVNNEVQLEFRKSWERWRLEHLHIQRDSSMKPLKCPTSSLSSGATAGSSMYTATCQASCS

Molecule	EC50 [1, 7]	EC50 [1, 8]	EC50 [2, 9]	EC50 [2, 10]	EC50 [3, 11]	EC50 [3, 12]	hGLP-1R Potency, no HSA, EC50 [pM] [4]	hGIPR Potency, no HSA, EC50 [pM] [5]	hAMYR3 Potency, no HSA, EC50 [pM] [6]
H[Aib]HGTFTSDYSILLEEQAAREFIEWLLAGGPSSGALQAPGQAPGASHLSTAQTARLSAELHRLK([AEEA-AEEA-γGlu-C18 diacid])TLPRTETGSGSP-NH2 [Compound 106]	0.0111 nM	0.00333 nM	0.0103 nM	0.0048 nM	0.0312 nM	0.00207 nM			
Y[Aib]EGTFTSDYSILLEEQAAREFIEWLLAGGPSGGGGEASHLSTAQTQRLSAELHK([AEEA-AEEA-γGlu-C20 diacid])LATLPRTETGSGSP-NH2 [Compound 96]	0.162 nM	0.0168 nM	0.03 nM	0.00362 nM	0.595 nM	0.00373 nM			
H[Aib]HGTFTSDYSILLEEQAAREFIEWLLAGGPSSGAGQAPGQAPGASHLSTAQTARLSAELHK([AEEA-AEEA-γGlu-C18 diacid])LATLPRTETGSGSP-NH2 [Compound 103]	0.0331 nM	0.00524 nM	0.0133 nM	0.00314 nM	0.0736 nM	0.00242 nM			
Y[Aib]EGTFTSDYSILLEEQAAREFIEWLLAGGPSRGEASELSTAALGRLSAELHK([AEEA-AEEA-γGlu-C18 diacid])LATLPRTETGSGSP-NH2 [Compound 67]	0.105 nM	0.0154 nM	0.037 nM	0.00428 nM	0.19 nM	0.00366 nM			
Y[Aib]EGTFTSDYSILLEEQAAREFIEWLLAGGPSSGAGQAPGQAPGASHLSTAQTQRLSAELHRLK([AEEA-AEEA-AEEA-γGlu-C18 diacid])TLPRTETGSGSP-NH2 [Compound 111]	0.0348 nM	0.0159 nM	0.0122 nM	0.00366 nM	0.0664 nM	0.00333 nM			
Y[Aib]EGTFTSDYSILLEEQAAREFIEWLLAGGPSRGEASHLSTAQTQRLSAELHK([AEEA-AEEA-γGlu-C20 diacid])LATLPRTETGSGSP-NH2 [Compound 94]	0.13 nM	0.0161 nM	0.0295 nM	0.0029 nM	0.377 nM	0.00391 nM			
Y[Aib]EGTFTSDYSILLEEQAAREFIEWLLAGGPSSK([γGlu-C20 diacid])APPPSGGGEASELSTAALGRLSAELHRLATLPRTETGSGSP-NH2 [Compound 42]		0.0613 nM		0.00801 nM		0.00342 nM			
Y[Aib]EGTFTSDYSILLEEQAAREFIEWLLAGGPSSGAPPPSGGGEASHLSTAQTQRLSAELHK([AEEA-AEEA-γGlu-C18 diacid])LATLPRTETGSGSP-NH2 [Compound 49]	0.11 nM	0.0333 nM	0.0167 nM	0.00436 nM	0.106 nM	0.00185 nM			
Y[Aib]EGTFTSDYSILLEEQAAREFIEWLLAGGPSK([AEEA-AEEA-γGlu-C18 diacid])GAPPPSGGGGASELSTAALGRLSAELHRLATLPRTETGSGSP-NH2 [Compound 13]		0.0379 nM		0.0024 nM		0.00226 nM			
H[Aib]HGTFTSDYSILLEEQAAREFIEWLLAGGPSSGALQAPGQAPLASHLSTAQTARLSAELHK([AEEA-AEEA-γGlu-C18 diacid])LATLPRTETGSGSP-NH2 [Compound 108]	0.015 nM	0.00457 nM	0.0115 nM	0.00401 nM	0.0599 nM	0.00248 nM			
H[Aib]HGTFTSDYSILLEEQAAREFIEWLLAGGPSK([AEEA-AEEA-γGlu-C18 diacid])GEASQLSTAALGRLSAELHHLATLPRTETGSGSP-NH2 [Compound 66]		0.00525 nM		0.00239 nM		0.00232 nM			
Y[Aib]EGTFTSDYSILLEEQAAREFIEWLLAGGPSSGALAQTLAQTLASHLSTAQTQRLSAELHK([AEEA-AEEA-γGlu-C20 diacid])LATLPRTETGSGSP-NH2 [Compound 60]	0.173 nM	0.0944 nM	0.0283 nM	0.00606 nM	0.191 nM	0.00385 nM			
B1							40.8 pM	5.02 pM	6.72 pM
B2							21.7 pM	1.7 pM	6.81 pM
B3							23.3 pM	1.63 pM	5.49 pM
B4							23.3 pM	1.97 pM	4.21 pM
B5							32.1 pM	3.11 pM	10.3 pM
B6							61.3 pM	8.01 pM	3.42 pM
